Results taken from US4386090A, “Nitrogen containing 2,3-dihydro naphthalenes, compositions and use” (Delalande S.A., priority 1980, dated 1983).
Counter-ions that a name gives are not always drawn.

How the values were obtained:
[1] = acute toxicity (LD 50); conditions: in vivo, ip
Source text: To illustrate the invention, there are shown in table IV below, the results obtained in these two tests and the acute toxicity (LD 50) of some compounds of formula (I).

[2] = system: mice; assay: analgesic activity, phenylbenzoquinone test (E. SIEGMUND); format: in vivo; conditions: Mus musculus, ip, read-out: ED 50 analgesic property
Source text: Soc. Exp. Biol. and Med. 95, 729, (1957).

[3] = system: mice; assay: antidepressive activity, antagonism to ptosis after intravenous injection of reserpine; format: in vivo; conditions: Mus musculus, ip, 1 h, i.p., ptosis observed an hour after i.v. reserpine 2 mg/kg, read-out: ED 50 antidepressive property
Source text: GOURET and J. THOMAS in J. Pharmacol. (Paris) (1973), 4, 401.

| Structure (SMILES) | LD50 [1] | ED50 [2] | ED50 [3] |
| --- | --- | --- | --- |
| CN(C)CC1C=C(c2ccccc2)c2ccccc2C1 (centres unmarked) [Code Number 1, 3-Dimethylaminomethyl 1-phenyl 3,4-dihydro naphthalene, oxalate] | 62 mg/kg | 6 mg/kg | 10 mg/kg |
| CN(C)CCC1C=C(c2ccccc2)c2ccccc2C1 (centres unmarked) [Code Number 2] | 110 mg/kg | 7.3 mg/kg | 1 mg/kg |
| CN(C)CC1Cc2ccccc2C(c2ccccc2F)=N1 (centres unmarked) [Code Number 8] | 35 mg/kg | 2.3 mg/kg | 1.1 mg/kg |
| CN(C)CC1Cc2ccc(Cl)cc2C(c2ccccc2F)=N1 (centres unmarked) [Code Number 9] | 52 mg/kg | 3 mg/kg | 4.3 mg/kg |
| CN(C)CC1Cc2ccc(Cl)cc2C(c2ccccc2)=N1 (centres unmarked) [Code Number 11] | 37 mg/kg | 3 mg/kg | 0.8 mg/kg |
| CN(C)CC1Cc2ccccc2C(c2ccccc2)=N1 (centres unmarked) [compound 6] | 41 mg/kg | 5 mg/kg | 3.5 mg/kg |
| CN1CCN(CC2Cc3ccccc3C(c3ccccc3)=N2)CC1 (centres unmarked) [compound 7] | 170 mg/kg | 6.2 mg/kg | 10 mg/kg |
| CN(C)CC1Cc2ccc(F)cc2C(c2ccccc2)=N1 (centres unmarked) [compound 10] | 60 mg/kg | 4 mg/kg | 2.8 mg/kg |
| Cc1ccc2c(c1)C(c1ccccc1)=NC(CN(C)C)C2 (centres unmarked) [compound 12] | 50 mg/kg | 5 mg/kg | 15 mg/kg |
| COc1ccc2c(c1)C(c1ccccc1)=NC(CN(C)C)C2 (centres unmarked) [compound 13] | 65 mg/kg | 3 mg/kg |  |
| COc1cc2c(cc1OC)C(c1ccccc1)=NC(CN(C)C)C2 (centres unmarked) [compound 14] | 135 mg/kg | 15 mg/kg |  |
| NCCC1Cc2ccccc2C(c2ccccc2)=N1 (centres unmarked) [compound 15] | 67 mg/kg | 10 mg/kg | 0.9 mg/kg |
| CNCCC1Cc2ccccc2C(c2ccccc2)=N1 (centres unmarked) [compound 16] | 65 mg/kg | 10 mg/kg | 8.2 mg/kg |
| CN(C)CCC1Cc2ccccc2C(c2ccccc2)=N1 (centres unmarked) [compound 17] | 65 mg/kg | 6 mg/kg | 1.5 mg/kg |
| CN(C)CCC1Cc2c(Cl)cccc2C(c2ccccc2)=N1 (centres unmarked) [compound 18] | 70 mg/kg | 1 mg/kg |  |
| CN(C)CCC1Cc2ccc(Cl)cc2C(c2ccccc2)=N1 (centres unmarked) [compound 19] | 95 mg/kg | 4 mg/kg | 3.8 mg/kg |
| NCCC1Cc2ccccc2C(c2ccccc2F)=N1 (centres unmarked) [compound 20] | 62 mg/kg | 3.7 mg/kg | 1.8 mg/kg |
| CNCCC1Cc2ccccc2C(c2ccccc2F)=N1 (centres unmarked) [compound 21] | 70 mg/kg | 10 mg/kg | 1.2 mg/kg |
| CN(C)CCC1Cc2ccccc2C(c2ccccc2F)=N1 (centres unmarked) [compound 22] | 70 mg/kg | 6.2 mg/kg | 0.6 mg/kg |
| CN(C)CCC1Cc2ccccc2C(c2cccc(F)c2)=N1 (centres unmarked) [compound 23] | 55 mg/kg | 2 mg/kg | 2 mg/kg |
| CN(C)CCC1Cc2ccccc2C(c2ccc(F)cc2)=N1 (centres unmarked) [compound 24] | 61 mg/kg | 8.4 mg/kg | 2.1 mg/kg |
| CN(C)CCC1Cc2ccccc2C(c2ccccc2Cl)=N1 (centres unmarked) [compound 25] | 60 mg/kg | 3.8 mg/kg | 3.7 mg/kg |
| CN(C)CCC1Cc2ccccc2C(c2cccc(Cl)c2)=N1 (centres unmarked) [compound 26] | 65 mg/kg | 7.6 mg/kg | 5.4 mg/kg |
| CN(C)CCC1Cc2ccccc2C(c2ccc(Cl)cc2)=N1 (centres unmarked) [compound 27] | 70 mg/kg | 11 mg/kg | 4.4 mg/kg |
| COc1ccccc1C1=NC(CCN(C)C)Cc2ccccc21 (centres unmarked) [compound 28] | 42 mg/kg | 10 mg/kg | 3 mg/kg |
| COc1cccc(C2=NC(CCN(C)C)Cc3ccccc32)c1 (centres unmarked) [compound 29] | 78 mg/kg | 10 mg/kg | 6.8 mg/kg |
| COc1ccc(C2=NC(CCN(C)C)Cc3ccccc32)cc1 (centres unmarked) [compound 30] | 70 mg/kg |  | 4.2 mg/kg |
| Cc1ccccc1C1=NC(CCN(C)C)Cc2ccccc21 (centres unmarked) [compound 31] | 50 mg/kg | 5.6 mg/kg | 1.8 mg/kg |

| Structure (SMILES) | LD50 [1] | ED50 [2] | ED50 [3] |
| --- | --- | --- | --- |
| Cc1cccc(C2=NC(CCN(C)C)Cc3ccccc32)c1 (centres unmarked) [compound 32] | 67 mg/kg | 6.6 mg/kg | 6.6 mg/kg |
| Cc1ccc(C2=NC(CCN(C)C)Cc3ccccc32)cc1 (centres unmarked) [compound 33] | 70 mg/kg | 8.8 mg/kg | 2.7 mg/kg |
| CN(C)CCC1Cc2ccccc2C(c2ccccc2[N+](=O)[O-])=N1 (centres unmarked) [compound 34] | 77 mg/kg | 3.4 mg/kg | 1 mg/kg |
| CN(C)CCC1Cc2ccccc2C(c2ccc([N+](=O)[O-])cc2)=N1 (centres unmarked) [compound 35] | 80 mg/kg | 8 mg/kg | 8 mg/kg |
| CN(C)CCC1Cc2ccccc2C(c2ccccc2Br)=N1 (centres unmarked) [compound 36] | 77 mg/kg |  | 2.4 mg/kg |
| CN(C)CCC1Cc2ccccc2C(C2CCCCC2)=N1 (centres unmarked) [compound 37] | 82 mg/kg | 10 mg/kg | 10 mg/kg |
| CN(C)CCCC1Cc2ccccc2C(c2ccccc2)=N1 (centres unmarked) [compound 38] | 85 mg/kg |  | 3.4 mg/kg |
| CN(C)CCCC1Cc2ccccc2C(c2ccccc2F)=N1 (centres unmarked) [compound 39] | 100 mg/kg | 1.9 mg/kg | 0.7 mg/kg |
| CN(C)CC1COc2ccccc2C(c2ccccc2)=N1 (centres unmarked) [compound 40] | 80 mg/kg | 3 mg/kg |  |
| CN(C)CC1COc2ccccc2C(c2ccccc2F)=N1 (centres unmarked) [compound 41] | 62 mg/kg | 7.2 mg/kg | 3.5 mg/kg |
| CN(C)CC1COc2ccccc2C(c2ccccc2Cl)=N1 (centres unmarked) [compound 42] | 70 mg/kg | 3.5 mg/kg | 7 mg/kg |
| CN(C)CC1COc2ccccc2C(c2cccc(Cl)c2)=N1 (centres unmarked) [compound 43] | 65 mg/kg | 10 mg/kg | 3 mg/kg |
| CN(C)CC1COc2ccccc2C(c2ccc(Cl)cc2)=N1 (centres unmarked) [compound 44] | 130 mg/kg | 9.8 mg/kg | 10 mg/kg |
| CN(C)CCC1COc2ccccc2C(c2ccccc2)=N1 (centres unmarked) [compound 45] | 160 mg/kg | 16.5 mg/kg | 12 mg/kg |
| CN(C)CCC1Cc2ccccc2C(c2ccccn2)=N1 (centres unmarked) [compound 86] | 94 mg/kg | 10 mg/kg | 4 mg/kg |
| CN(C)CC1COc2ccccc2C(c2cccc(F)c2)=N1 (centres unmarked) [compound 87] | 100 mg/kg |  | 30 mg/kg |
| CN1CCN(CC2Cc3c(Cl)cccc3C(c3ccccc3)=N2)CC1 (centres unmarked) [compound 94] | 140 mg/kg | 22 mg/kg |  |
| CCN(CC)CC1Cc2ccc(C)cc2C(c2ccccc2)=N1 (centres unmarked) [compound 95] | 45 mg/kg | 10 mg/kg |  |
| Cc1ccc2c(c1)C(c1ccccc1)=NC(CN1CCCCC1)C2 (centres unmarked) [compound 97] | 52 mg/kg | 10 mg/kg |  |
| Cc1ccc2c(c1)C(c1ccccc1)=NC(CN1CCOCC1)C2 (centres unmarked) [compound 98] | 125 mg/kg | 30 mg/kg |  |
| Cc1ccc2c(c1)C(c1ccccc1)=NC(CN1CCN(C)CC1)C2 (centres unmarked) [compound 99] | 130 mg/kg | 30 mg/kg |  |
| COc1ccc2c(c1)C(c1ccccc1)=NC(CN1CCN(C)CC1)C2 (centres unmarked) [compound 100] | 140 mg/kg | 30 mg/kg | 9 mg/kg |
| CN(C)CCC1C=C(c2ccccc2F)c2ccccc2C1 (centres unmarked) [compound 101] | 93 mg/kg | 4.3 mg/kg | 0.4 mg/kg |
| CN(C)CCC1Cc2ccccc2C(c2ccccc2C(F)(F)F)=N1 (centres unmarked) [compound 103] | 70 mg/kg |  | 3.8 mg/kg |
| CN(C)CCC1Cc2ccccc2C(c2cccc(C(F)(F)F)c2)=N1 (centres unmarked) [compound 104] | 62 mg/kg | 4.3 mg/kg |  |
| COc1cc2c(cc1OC)C(c1ccccc1)=NC(CCN(C)C)C2 (centres unmarked) [compound 105] | 165 mg/kg | 12 mg/kg | 30 mg/kg |
| CN1CCN(CCC2Cc3c(Cl)cccc3C(c3ccccc3)=N2)CC1 (centres unmarked) [compound 106] | 145 mg/kg | 12 mg/kg |  |
